Assay results reported in patent US8486996B2, “Aroylfuranes and aroylthiophenes” (Basilea Pharmaceutica AG, priority 2006, dated 2013).
Read-outs that look alike come from different tables or passages of the source.

Columns and labels:
[1] = Hoechst 33342 nuclear staining (48 h read-out); assay type: cell-based
Procedure, shortened: (§1)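 Adherent cells pre-spread 24 h before dosing, suspension cells dosed at seeding; compounds at 0.001 μM-10 μM final, 48 h at culture conditions. Hoechst 33342 (2-5 μg/ml) added for 30 min, then fluorescence microscopy scoring of apoptotic nuclear fraction and apoptosis-specific morphology, reported as scores A-D.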

tumor cells [2] = test: Hoechst 33342 nuclear staining (48 h read-out); assay type: cell-based
Procedure, shortened: as §1

[3] = Mitochondrial membrane potential, JC-1 (read-out 48 h); assay type: cell-based; conditions: PBL, JC-1, 48 h
Procedure, shortened: (§2)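 Tumor cells were treated with test compounds (adherent cells after 24 h of attachment, suspension cells immediately), medium holding up to 5% DMSO. After 48 h, JC-1 (2-5 μg/ml in added medium) was applied for 30 min. Fluorescence microscopy (FITC/TRITC filters) scored the fraction of cells with dissipated mitochondrial membrane potential as categories A-D.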

tumor cells [4] = test: as above; assay type: cell-based; conditions: JC-1, 48 h
Procedure, shortened: as §2

[5] = MTS proliferation assay (72 h read-out); assay type: cell-based; conditions: MRC5 cells
Procedure, shortened: (§3)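 Viability was read by MTS absorbance at 492 nm after 3 h with reagent. Before that, cells plated a day earlier at 1.5×10^3–10^4 per well had been incubated with test compound at final concentrations of 0.001–10 μM for 72 h; activity is given as category scores A–D.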

tumor cells [6] = test: MTS proliferation assay (72 h read-out); assay type: cell-based
Procedure, shortened: as §3

H460 = test: Colony Forming Units (read-out 6 days), H460; assay type: cell-based, human; conditions: colonies containing more than 30 cells, read-out: Colony Forming Units, score based on IC50, H460
Experimental: (§4) Appropriate numbers of cells (100-150 cells, dependent on the cell type) are being seeded out in 1 ml complete medium into 6-well plates and allowed to attach for 48 h. The compounds are added after 48 h in 500 μl solution. The concentrations are in the range of 0.001 μM-3 μM. Control plates receive the same volume of medium containing the appropriate amount of DMSO. The plates are incubated for 5-7 days at cell culture conditions and subsequently scored for growth of colonies (containing more than 30 cells) by using a microscope.

HeLa = test: Colony Forming Units (read-out 6 days), HeLa; assay type: cell-based, human; conditions: colonies containing more than 30 cells, read-out: Colony Forming Units, score based on IC50, HeLa
Experimental: as §4

[7] = Homo sapiens, MRC5 cells, read-out: Hoechst 33342 nuclear staining EC50, MRC5
[8] = PBL, read-out: Hoechst 33342 nuclear staining EC50, PBL
[9] = Homo sapiens, HeLa cells, read-out: Hoechst 33342 nuclear staining EC50, HeLa
[10] = Homo sapiens, Jurkat cells, read-out: Hoechst 33342 nuclear staining EC50, Jurkat
[11] = Jily cells, read-out: Hoechst 33342 nuclear staining EC50, Jily
[12] = Homo sapiens, HeLa cells, read-out: Mitochondrial membrane potential (read-out 48 h) HeLa
[13] = Homo sapiens, Jurkat cells, read-out: Mitochondrial membrane potential (read-out 48 h) Jurkat
[14] = Homo sapiens, MCF7 cells, read-out: Mitochondrial membrane potential (read-out 48 h) MCF7
[15] = Jily cells, read-out: Mitochondrial membrane potential (read-out 48 h) Jily
[16] = Homo sapiens, HT-1080, HT1080 cells, read-out: MTS proliferation assay IC50, HT1080
[17] = Homo sapiens, HeLa cells, read-out: MTS proliferation assay IC50, HeLa
[18] = Jily cells, read-out: MTS proliferation assay IC50, Jily
[19] = Homo sapiens, Jurkat cells, read-out: MTS proliferation assay IC50, Jurkat
[20] = MRC5 cells, read-out: Hoechst 33342 nuclear staining EC50, MRC5
[21] = HeLa cells, read-out: Hoechst 33342 nuclear staining EC50, HeLa
[22] = Jurkat cells, read-out: Hoechst 33342 nuclear staining EC50, Jurkat
[23] = HeLa cells, read-out: Mitochondrial membrane potential (read-out 48 h) HeLa
[24] = Jurkat cells, read-out: Mitochondrial membrane potential (read-out 48 h) Jurkat
[25] = MCF7 cells, read-out: Mitochondrial membrane potential (read-out 48 h) MCF7
[26] = HT1080 cells, read-out: MTS proliferation assay IC50, HT1080
[27] = HeLa cells, read-out: MTS proliferation assay IC50, HeLa
[28] = Jurkat cells, read-out: MTS proliferation assay IC50, Jurkat

Row | SMILES | EC50 [1, 8] | EC50 (tumor cells [2]; [9]) | EC50 (tumor cells [2]; [10]) | EC50 (tumor cells [2]; [11]) | EC50 [3] | EC50 (tumor cells [4]; [12]) | EC50 (tumor cells [4]; [13]) | EC50 (tumor cells [4]; [14]) | EC50 (tumor cells [4]; [15]) | IC50 (tumor cells [6]; [18]) | melting point | EC50 (tumor cells [2]; [21]) | EC50 (tumor cells [2]; [22]) | IC50 (H460) | IC50 (HeLa) | EC50 (tumor cells [4]; [23]) | EC50 (tumor cells [4]; [24]) | EC50 (tumor cells [4]; [25]) | EC50 [1, 7] | EC50 [1, 20] | other results
1 | CCOc1ccc(N)cc1C(=O)c1oc2ccc(Cl)cc2c1N [Example 7] | > 1 µM | 0.1 to 1 µM | 0.1 to 1 µM | 0.1 to 1 µM | > 1 µM | 0.1 to 1 µM | 0.1 to 1 µM | > 1 µM | 0.1 to 1 µM | 0.1 to 1 µM | 144 to 146 °C | – | – | – | – | – | – | – | > 1 µM | – | IC50 ([5]; Homo sapiens): > 1 µM; IC50 (tumor cells [6]; [16]): 0.1 to 1 µM; IC50 (tumor cells [6]; [17]): 0.1 to 1 µM
2 | Cc1ccc(OC(C)C)c(C(=O)c2oc3ccc(Cl)cc3c2N)c1 [Example 16] | > 1 µM | 0.01 to 0.1 µM | 0.01 to 0.1 µM | 0.01 to 0.1 µM | > 1 µM | 0.01 to 0.1 µM | 0.01 to 0.1 µM | 0.01 to 0.1 µM | 0.01 to 0.1 µM | < 0.01 µM | 110 to 112 °C | – | – | – | – | – | – | – | 0.01 to 0.1 µM | – | IC50 ([5]; Homo sapiens): 0.01 to 0.1 µM; IC50 (tumor cells [6]; [16]): 0.01 to 0.1 µM; IC50 (tumor cells [6]; [17]): 0.01 to 0.1 µM; IC50 (tumor cells [6]; [19]): < 0.01 µM
3 | CCOc1ccc(C(=O)OC)cc1C(=O)c1oc2ccc(Cl)cc2c1N [Example 20] | > 1 µM | 0.1 to 1 µM | 0.01 to 0.1 µM | 0.01 to 0.1 µM | > 1 µM | 0.1 to 1 µM | 0.01 to 0.1 µM | 0.1 to 1 µM | 0.01 to 0.1 µM | 0.01 to 0.1 µM | 136 to 138 °C | – | – | – | – | – | – | – | > 1 µM | – | IC50 (tumor cells [6]; [16]): 0.01 to 0.1 µM; IC50 (tumor cells [6]; [17]): 0.1 to 1 µM; IC50 (tumor cells [6]; [19]): 0.01 to 0.1 µM
4 | CCOc1ncccc1C(=O)c1oc2ccc(Cl)cc2c1N [Example 78] | > 1 µM | – | – | 0.01 to 0.1 µM | > 1 µM | – | – | – | 0.01 to 0.1 µM | < 0.01 µM | – | 0.01 to 0.1 µM | < 0.01 µM | 0.01 to 0.1 µM | 0.01 to 0.1 µM | 0.01 to 0.1 µM | < 0.01 µM | 0.1 to 1 µM | – | > 1 µM | IC50 [5]: < 0.01 µM; IC50 (tumor cells [6]; [26]): < 0.01 µM; IC50 (tumor cells [6]; [27]): 0.01 to 0.1 µM; IC50 (tumor cells [6]; [28]): < 0.01 µM
5 | CCN(C)c1ncccc1C(=O)c1oc2ccc(Cl)cc2c1N [Example 80] | > 1 µM | – | – | 0.1 to 1 µM | > 1 µM | – | – | – | 0.1 to 1 µM | 0.01 to 0.1 µM | – | 0.1 to 1 µM | 0.1 to 1 µM | 0.1 to 1 µM | 0.1 to 1 µM | 0.1 to 1 µM | 0.01 to 0.1 µM | > 1 µM | – | > 1 µM | IC50 [5]: 0.1 to 1 µM; IC50 (tumor cells [6]; [26]): 0.1 to 1 µM; IC50 (tumor cells [6]; [27]): 0.1 to 1 µM; IC50 (tumor cells [6]; [28]): 0.01 to 0.1 µM
6 | Nc1c(C(=O)c2cccnc2N2CCCCC2)oc2ccc(Cl)cc12 [Example 82] | > 1 µM | – | – | 0.01 to 0.1 µM | > 1 µM | – | – | – | < 0.01 µM | < 0.01 µM | – | 0.01 to 0.1 µM | < 0.01 µM | 0.01 to 0.1 µM | 0.01 to 0.1 µM | 0.01 to 0.1 µM | < 0.01 µM | 0.01 to 0.1 µM | – | 0.01 to 0.1 µM | IC50 [5]: < 0.01 µM; IC50 (tumor cells [6]; [26]): < 0.01 µM; IC50 (tumor cells [6]; [27]): < 0.01 µM; IC50 (tumor cells [6]; [28]): < 0.01 µM

Continued, in another order:

Row | EC50 [1, 8] | EC50 (tumor cells [2]; [9]) | EC50 (tumor cells [2]; [10]) | EC50 (tumor cells [2]; [11]) | EC50 [3] | EC50 (tumor cells [4]; [12]) | EC50 (tumor cells [4]; [13]) | EC50 (tumor cells [4]; [14]) | EC50 (tumor cells [4]; [15]) | IC50 (tumor cells [6]; [18]) | melting point | EC50 (tumor cells [2]; [21]) | EC50 (tumor cells [2]; [22]) | IC50 (H460) | IC50 (HeLa) | EC50 (tumor cells [4]; [23]) | EC50 (tumor cells [4]; [24]) | EC50 (tumor cells [4]; [25]) | SMILES | EC50 [1, 7] | EC50 [1, 20] | other results
7 | > 1 µM | – | – | 0.01 to 0.1 µM | > 1 µM | – | – | – | < 0.01 µM | 0.01 to 0.1 µM | – | 0.01 to 0.1 µM | < 0.01 µM | 0.01 to 0.1 µM | 0.01 to 0.1 µM | < 0.01 µM | < 0.01 µM | < 0.01 µM | COc1ccc2oc(C(=O)c3cc(F)ccc3N3CC=CCC3)cc2c1 [Example 98] | – | 0.01 to 0.1 µM | IC50 [5]: < 0.01 µM; IC50 (tumor cells [6]; [26]): 0.01 to 0.1 µM; IC50 (tumor cells [6]; [27]): 0.01 to 0.1 µM; IC50 (tumor cells [6]; [28]): < 0.01 µM
8 | > 1 µM | > 1 µM | 0.1 to 1 µM | 0.1 to 1 µM | > 1 µM | > 1 µM | 0.1 to 1 µM | 0.1 to 1 µM | – | – | 156 to 158 °C | – | – | – | – | – | – | – | CCOc1ccccc1C(=O)COc1nc(C)ccc1C#N [Example 145] | > 1 µM | – | –
9 | > 1 µM | 0.1 to 1 µM | 0.01 to 0.1 µM | 0.1 to 1 µM | > 1 µM | 0.1 to 1 µM | 0.01 to 0.1 µM | 0.1 to 1 µM | – | – | 138 to 140 °C | – | – | – | – | – | – | – | CCOc1ccc(Cl)cc1C(=O)COc1nc(C)ccc1C#N [Example 146] | 0.1 to 1 µM | – | –
